Test results taken from ChEMBL document CHEMBL1131817, “Structure-based design of irreversible, tripeptidyl human rhinovirus 3C protease inhibitors containing N-methyl amino acids” (Bioorg Med Chem Lett, 1999).

What was measured:
[1] = molecular target: T1, Human rhinovirus A protease (Human rhinovirus sp.) (UniProt Q4U254); assay: Inhibitory activity against Human RhinoVirus serotype-14 3C Protease; type: functional; conditions: rhinovirus B14
T1 sequence (whole entry): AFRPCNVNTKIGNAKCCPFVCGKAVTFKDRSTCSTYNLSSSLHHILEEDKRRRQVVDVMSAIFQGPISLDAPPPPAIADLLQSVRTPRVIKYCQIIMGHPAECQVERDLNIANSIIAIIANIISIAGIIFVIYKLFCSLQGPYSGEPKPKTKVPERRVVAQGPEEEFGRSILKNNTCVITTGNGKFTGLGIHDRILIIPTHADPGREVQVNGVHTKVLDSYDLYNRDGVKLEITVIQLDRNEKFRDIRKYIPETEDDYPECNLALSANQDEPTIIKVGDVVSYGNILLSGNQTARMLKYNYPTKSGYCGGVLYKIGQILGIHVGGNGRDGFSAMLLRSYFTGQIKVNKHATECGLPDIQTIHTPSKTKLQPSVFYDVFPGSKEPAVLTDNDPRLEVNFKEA

Human rhinovirus sp. [2] = assay: In vitro antiviral activity against HRV serotype-14; type: functional, organism-based
Human rhinovirus sp. [3] = assay: Inhibitory activity against Human RhinoVirus serotype-14 3C Protease; NI means No inhibition to 50 uM; type: functional, organism-based

SMILES	k obs / 1 [1]	EC50 (Human rhinovirus sp. [2])	k obs / 1 (Human rhinovirus sp. [3])
CCOC(=O)/C=C/[C@H](CCC(N)=O)NC(=O)[C@H](Cc1ccc(F)cc1)N(C)C(=O)[C@H](CC(C)C)NC(=O)c1cc(C)on1	59300 M⁻¹ s⁻¹	0.4 µM	
CCOC(=O)/C=C/[C@H](CCC(N)=O)NC(=O)[C@H](Cc1ccccc1)N(C)C(=O)[C@H](CC(C)C)NC(=O)OCc1ccccc1	5300 M⁻¹ s⁻¹	1 µM	
CCOC(=O)/C=C/[C@H](CCC(N)=O)NC(=O)[C@H](Cc1ccc(F)cc1)N(C)C(=O)[C@H](Cc1ccc2ccccc2c1)NC(=O)c1cc(C)on1	144000 M⁻¹ s⁻¹	0.16 µM	
CCOC(=O)/C=C/[C@H](CCC(N)=O)NC(=O)[C@H](Cc1ccccc1)NC(=O)[C@H](CC(C)C)NC(=O)OCc1ccccc1	25000 M⁻¹ s⁻¹	0.54 µM	
CCOC(=O)/C=C/[C@H](CCC(N)=O)NC(=O)[C@H](Cc1ccc(F)cc1)N(C)C(=O)[C@H](Cc1cccc2ccccc12)NC(=O)c1cc(C)on1	95800 M⁻¹ s⁻¹	0.2 µM	
CCOC(=O)/C=C/[C@H](CCC(N)=O)NC(=O)[C@H](Cc1ccc(F)cc1)N(C)C(=O)[C@H](Cc1c[nH]cn1)NC(=O)c1cc(C)on1	66000 M⁻¹ s⁻¹	1.8 µM	
CCOC(=O)/C=C/[C@H](CCC(N)=O)NC(=O)[C@H](Cc1ccccc1)N(C)C(=O)[C@H](CSc1ccccc1)NC(=O)SC1CCCC1	36800 M⁻¹ s⁻¹	0.54 µM	
CCOC(=O)/C=C/[C@H](CCC(N)=O)NC(=O)[C@H](Cc1ccccc1)N(C)C(=O)[C@H](CC(C)C)NC(=O)c1cc(C)on1	108000 M⁻¹ s⁻¹	0.14 µM	
CCOC(=O)/C=C/[C@H](C[C@@H]1CCCNC1=O)NC(=O)[C@H](Cc1ccc(F)cc1)N(C)C(=O)[C@H](CC(C)C)NC(=O)c1cc(C)on1	610000 M⁻¹ s⁻¹	0.03 µM	
CCOC(=O)/C=C/[C@H](CCC(N)=O)N(C)C(=O)[C@H](Cc1ccccc1)NC(=O)[C@H](CC(C)C)NC(=O)OCc1ccccc1			No inhibition
CCOC(=O)/C=C/[C@H](CCC(N)=O)NC(=O)[C@H](Cc1ccccc1)N(C)C(=O)[C@H](CC(C)C)NC(=O)SC1CCCC1	17300 M⁻¹ s⁻¹	0.32 µM	
CCOC(=O)/C=C/[C@H](CCC(N)=O)NC(=O)[C@H](Cc1ccccc1)NC(=O)[C@H](CC(C)C)N(C)C(=O)OCc1ccccc1	100 M⁻¹ s⁻¹		
CCOC(=O)/C=C/[C@H](CCC(N)=O)NC(=O)[C@H](Cc1ccccc1)N(C)C(=O)[C@@H](NC(=O)SC1CCCC1)C(C)C	22500 M⁻¹ s⁻¹	0.19 µM	
